Holding throughout (format): cell-based
For assay [1], the target named is Cyclin-dependent kinase 7 (Homo sapiens) (UniProt P50613). Kind of assay: Inhibition of biotinylated-THZ1 binding to CDK7 in human Jurkat cells assessed as reduction in cyclin H pull down at 1 uM preincubated for 6 hrs followed by biotinylated-THZ1 addition by Western blotting based pull-down assay.
Assay [2] addresses Cyclin-dependent kinase 12 (Homo sapiens) (UniProt Q9NYV4). Kind of assay: Inhibition of biotinylated-THZ1 binding to CDK12 in human Jurkat cells assessed as reduction in cyclin K pull down at 1 uM preincubated for 6 hrs followed by biotinylated-THZ1 addition by Western blotting based pull-down assay.
Assay [3] addresses Cyclin-dependent kinase 12/13 (Homo sapiens) (UniProt Q14004+Q9NYV4). Kind of assay: Inhibition of biotinylated-THZ1 binding to CDK12/CDK13 in human Jurkat cells assessed as reduction in cyclin K pull down at 1 uM preincubated for 6 hrs followed by biotinylated-THZ1 addition by Western blotting based pull-down assay.

Calls of active or inactive are those of the source. The rule behind the calls is not given here.

Cyclin-dependent kinase 7 (Homo sapiens), sequence (P50613 whole entry): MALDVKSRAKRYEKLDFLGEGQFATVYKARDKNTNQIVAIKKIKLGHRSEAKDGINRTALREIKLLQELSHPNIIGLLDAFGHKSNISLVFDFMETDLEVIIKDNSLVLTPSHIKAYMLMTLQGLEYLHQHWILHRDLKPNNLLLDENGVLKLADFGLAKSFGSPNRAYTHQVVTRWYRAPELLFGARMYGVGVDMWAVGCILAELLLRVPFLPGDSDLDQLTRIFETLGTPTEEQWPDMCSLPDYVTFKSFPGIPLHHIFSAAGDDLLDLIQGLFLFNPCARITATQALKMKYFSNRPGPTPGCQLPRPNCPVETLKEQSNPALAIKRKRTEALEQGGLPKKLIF
Cyclin-dependent kinase 12 (Homo sapiens), sequence (Q9NYV4 whole entry, looked up): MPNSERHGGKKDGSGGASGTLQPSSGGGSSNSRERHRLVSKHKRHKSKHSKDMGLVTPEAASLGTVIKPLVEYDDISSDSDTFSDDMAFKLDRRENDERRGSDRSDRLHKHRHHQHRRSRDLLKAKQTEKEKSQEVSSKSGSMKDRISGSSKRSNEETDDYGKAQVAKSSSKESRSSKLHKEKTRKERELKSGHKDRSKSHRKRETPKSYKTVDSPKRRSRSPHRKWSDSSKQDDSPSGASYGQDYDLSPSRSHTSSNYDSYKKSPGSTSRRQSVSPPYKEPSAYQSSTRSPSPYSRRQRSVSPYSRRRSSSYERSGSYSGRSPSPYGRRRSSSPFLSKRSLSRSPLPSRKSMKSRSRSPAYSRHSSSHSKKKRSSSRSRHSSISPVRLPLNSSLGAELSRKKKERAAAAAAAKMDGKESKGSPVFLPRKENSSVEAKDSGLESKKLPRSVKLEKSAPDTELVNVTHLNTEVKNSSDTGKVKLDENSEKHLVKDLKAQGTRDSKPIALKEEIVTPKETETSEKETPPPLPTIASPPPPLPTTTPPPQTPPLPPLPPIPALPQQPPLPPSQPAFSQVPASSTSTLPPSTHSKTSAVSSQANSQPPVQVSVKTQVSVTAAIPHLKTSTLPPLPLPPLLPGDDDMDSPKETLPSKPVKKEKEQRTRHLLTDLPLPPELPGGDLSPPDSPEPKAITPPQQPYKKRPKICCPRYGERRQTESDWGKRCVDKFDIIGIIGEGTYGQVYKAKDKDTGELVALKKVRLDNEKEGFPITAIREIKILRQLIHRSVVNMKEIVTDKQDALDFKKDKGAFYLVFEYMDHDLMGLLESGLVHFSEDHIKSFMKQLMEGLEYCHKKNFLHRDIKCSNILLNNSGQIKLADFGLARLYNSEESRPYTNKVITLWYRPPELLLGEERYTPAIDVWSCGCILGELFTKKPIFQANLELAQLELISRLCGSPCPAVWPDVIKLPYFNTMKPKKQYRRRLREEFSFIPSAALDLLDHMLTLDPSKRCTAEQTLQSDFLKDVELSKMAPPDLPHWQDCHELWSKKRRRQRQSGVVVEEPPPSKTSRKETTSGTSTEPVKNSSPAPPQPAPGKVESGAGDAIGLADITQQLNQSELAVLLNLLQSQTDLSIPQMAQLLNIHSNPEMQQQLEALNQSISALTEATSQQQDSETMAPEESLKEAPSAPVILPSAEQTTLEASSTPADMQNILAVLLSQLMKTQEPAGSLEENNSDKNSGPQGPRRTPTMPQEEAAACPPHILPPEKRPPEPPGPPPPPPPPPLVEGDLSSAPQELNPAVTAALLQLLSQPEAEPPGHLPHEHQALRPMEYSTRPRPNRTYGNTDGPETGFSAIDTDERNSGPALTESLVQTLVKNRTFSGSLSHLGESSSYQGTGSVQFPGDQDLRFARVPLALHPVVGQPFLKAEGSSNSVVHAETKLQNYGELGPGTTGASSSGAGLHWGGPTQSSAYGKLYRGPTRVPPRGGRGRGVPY

Turning to `CN(C)C/C=C/C(=O)Nc1ccc(N2CCC[C@@H](Nc3ncc(Cl)c(-c4c[nH]c5ccccc45)n3)C2)nc1`, the inhibition entry in assay [1] and in assay [2] was “inactive” throughout. Consider `CN(C)C/C=C/C(=O)Nc1ccc(C(=O)Nc2cccc(Nc3ncc(Cl)c(-c4c[nH]c5ccccc45)n3)c2)cc1`, for which the inhibition result in assay [3] and in assay [1] was “Active” throughout. `C=CC(=O)Nc1ccc(O[C@@H]2CCC[C@@H](Nc3ncc(Cl)c(-c4c[nH]c5ccccc45)n3)C2)cc1`: the inhibition result in assay [2] was “inactive”. Take `CN(C)C/C=C/C(=O)Nc1ccc(O[C@@H]2CCC[C@@H](Nc3ncc(Cl)c(-c4c[nH]c5ccccc45)n3)C2)cc1`: the inhibition entry in assay [3] is “Active”. In addition, the inhibition entry in assay [1] and in assay [2] was “inactive” throughout. On to `C=CC(=O)Nc1ccc(N2CCC[C@@H](Nc3ncc(Cl)c(-c4c[nH]c5ccccc45)n3)C2)nc1`, for which the inhibition entry in assay [2] is “inactive”.

Turning to `C=CC(=O)Nc1ccc(N2CCC[C@@H](Nc3ncc(Cl)c(-c4c[nH]c5ccccc45)n3)C2)cc1`, the inhibition entry in assay [1] and in assay [2] was “inactive” in each case. For the compound `CN(C)C/C=C/C(=O)Nc1ccc(C(=O)N2CCC[C@@H](Nc3ncc(Cl)c(-c4c[nH]c5ccccc45)n3)C2)nc1`, the inhibition result in assay [2] is “inactive”.

These data come from ChEMBL document CHEMBL4739714, “Inhibitors of cyclin-dependent kinase 12 (cdk12) and uses thereof” (2020).
